# From article PMC5399635 (The Journal of Pharmacology and Experimental Therapeutics, 2017)
# Counter-ions that a name gives are not always drawn. Like-named read-outs stand apart in the source and are kept apart here.
# Assays:
# [1] = test system: morphine-induced antinociception; assay: Hot plate model of nociception, antagonism of morphine
# [2] = in vitro; details: human
# [3] = In situ rat brain perfusion model; details: 30 s perfusion, test compound 20 μM, atenolol 50 μM, antipyrine 5 μM, mean ± S.D.
# [4] = test system: morphine-induced inhibition of gastrointestinal transit; assay: Gastrointestinal transit model (charcoal meal), antagonism of morphine
# [5] = target: T1, human µ-opioid receptor (Homo sapiens, UniProt P35372); assay: Radioligand binding, µ-opioid receptor ([3H]diprenorphine); parameters: expressed in transfected cells; b18 says CHO cells; details: read-out: geometric mean Ki
# [6] = target: T1, human µ-opioid receptor; assay: [35S]GTPγS binding, Schild-type antagonism of morphine (CHO-K1 membranes)
# [7] = target: T2, rat κ-opioid receptor (Rattus norvegicus, UniProt P34975); assay: Radioligand binding, κ-opioid receptor ([3H]U69593); details: cloned rat κ-opioid receptors; read-out: geometric mean Ki
# T2 construct: expressed in transfected cells; host or cells: CHO cells
# Protocol: Competitive inhibition studies were performed on cloned opioid receptors expressed in membranes of Chinese hamster ovary (CHO) cells and conducted in triplicate (n = 3 independent experiments).
# Radioligand binding assays were performed to evaluate the ability of these agents to inhibit specific radioligand binding to cloned opioid receptor subtypes. Half-maximal inhibitory concentration (IC50), equilibrium dissociation constant for the inhibitor (Ki), and negative log of the equilibrium dissociation constant for the inhibitor (pKi) values were obtained. The receptor binding methods used for µ ([Zhang et al., 1998])-, δ ([Simonin et al., 1994])-, and κ ([Meng et al., 1993])-opioid receptors have been described previously, with the exception that 100 mM NaCl was added to the incubation buffer in the µ-opioid receptor binding assay. All assays were conducted in 200-µl volume. All assay incubations were terminated by filtration, and bound radioligand was quantitated by liquid scintillation spectrometry. The IC50 values were determined by nonlinear regression analysis of the competition curves generated with the mean of duplicate values using Hill equation curve fitting. The inhibition constants (Ki) were calculated using the Cheng-Prusoff equation. The pKi results from three independent experiments were analyzed for significant differences by one-way analysis of variance (ANOVA) followed by Bonferroni multiple comparison test.
# [8] = rat, in vivo, 30 s, 20 μM, pH 7.4
# T1 sequence (P35372 whole entry): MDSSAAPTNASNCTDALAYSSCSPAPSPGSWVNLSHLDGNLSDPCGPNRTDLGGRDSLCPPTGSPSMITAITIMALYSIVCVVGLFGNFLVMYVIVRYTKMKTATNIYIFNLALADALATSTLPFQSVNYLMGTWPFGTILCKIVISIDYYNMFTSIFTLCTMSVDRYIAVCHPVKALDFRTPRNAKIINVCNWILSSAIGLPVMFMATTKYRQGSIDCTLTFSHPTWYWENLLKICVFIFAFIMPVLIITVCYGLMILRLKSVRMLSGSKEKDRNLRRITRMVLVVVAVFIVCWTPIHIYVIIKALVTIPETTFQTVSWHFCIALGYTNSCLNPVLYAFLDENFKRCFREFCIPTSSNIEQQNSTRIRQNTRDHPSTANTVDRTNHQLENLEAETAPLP
# T2 sequence (P34975 whole entry): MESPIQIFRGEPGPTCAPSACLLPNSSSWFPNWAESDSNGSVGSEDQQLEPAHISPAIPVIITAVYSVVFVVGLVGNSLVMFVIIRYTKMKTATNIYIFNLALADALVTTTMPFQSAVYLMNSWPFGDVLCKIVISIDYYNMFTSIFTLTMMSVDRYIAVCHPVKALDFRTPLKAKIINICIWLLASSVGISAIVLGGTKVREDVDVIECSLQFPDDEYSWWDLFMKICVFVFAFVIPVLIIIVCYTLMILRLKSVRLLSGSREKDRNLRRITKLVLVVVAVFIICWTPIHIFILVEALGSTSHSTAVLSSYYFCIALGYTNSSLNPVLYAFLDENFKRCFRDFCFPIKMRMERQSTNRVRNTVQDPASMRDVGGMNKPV
smiles,measurement,setting,value
"C=CCN1CC[C@]23c4c5ccc(O)c4O[C@H]2C(=O)CC[C@@]3(O)[C@H]1C5 [Naloxone, naloxone hydrochloride, reference compound]",ED50,"[1]; Rattus norvegicus, po, read-out: ED50, antagonism of morphine analgesia",1.14 mg/kg
same,oral dose that completely reversed the analgesic effect of morphine,"[1]; hot plate assay, rat",≥ 10 mg/kg
same,"Papp A→B at 2 h, 10 μM","[2]; Caco-2, pH 7.4, Papp A→B, no P-gp inhibitor, mean of 3 experiments",273 nm/s
same,"Papp B→A at 2 h, 10 μM","[2]; Caco-2, pH 7.4, Papp B→A, no P-gp inhibitor, mean of 3 experiments",250 nm/s
same,"Papp A→B at 2 h, 10 μM","[2]; Caco-2, pH 7.4, with cyclosporin A, Papp A→B, Cyclosporin A",284 nm/s
same,"Papp B→A at 2 h, 10 μM","[2]; Caco-2, pH 7.4, with cyclosporin A, Papp B→A, Cyclosporin A",237 nm/s
same,"Papp A→B at 2 h, 10 μM","[2]; Caco-2, pH 7.4, with elacridar, 0.5 μM, Papp A→B, Elacridar",248 nm/s
same,"Papp B→A at 2 h, 10 μM","[2]; Caco-2, pH 7.4, with elacridar, 0.5 μM, Papp B→A, Elacridar",273 nm/s
same,"Papp A→B at 2 h, 10 μM","[2]; Caco-2, pH 7.4, with verapamil, 100 μM, Papp A→B, Verapamil",245 nm/s
same,"Papp B→A at 2 h, 10 μM","[2]; Caco-2, pH 7.4, with verapamil, 100 μM, Papp B→A, Verapamil",249 nm/s
same,Brain Uptake,[3],60.2 ± 13.7 pmol/g brain/s
same,oral dose that completely reversed the effect of morphine,"[4]; GI transit assay, rat",≥ 10 mg/kg
same,ED50,"[4]; Rattus norvegicus, read-out: ED50, antagonism of morphine in GI transit",0.69 mg/kg
"C[N@+]1(CC2CC2)CC[C@]23c4c5ccc(O)c4O[C@H]2C(=O)CC[C@@]3(O)[C@H]1C5 [Methylnaltrexone, Methylnaltrexone bromide]",Ki,[5],0.0221 µM
same,Kb,[6],0.037 µM
same,pA2,"[6]; versus morphine, 3 independent experiments",7.43 ± 0.02
same,Schild slope,"[6]; versus morphine, pooled 3 experiments",–0.982
same,Ki,[7],0.0109 µM
"Cc1cc(=O)n(-c2ccccc2)n1C [Antipyrine, antipyrine]",Brain Uptake,[8],28.2 ± 14.3 pmol/g brain/s
